Source: patent US20200264182A1, “METHOD FOR DETECTING PROSTATE CANCER” (J-OIL MILLS, INC., priority 2017, published 2020)

Columns and labels:
[1] = FAC binding constant (Table 5 entry); conditions: Table 5: sugar chain having no fucose; at 25° C.
Procedure: (§1) Details of the FAC method are described in Patent Document 2 filed by some of the present applicants, for example.
(§2) Binding constants (at 25° C.) of PhoSL, SRL, NSL and LSL belonging to the fucose α1→6 specific lectin for various sugar chains are shown in Tables 2 to 5.

FAC binding constant = conditions: at 25° C.
Procedure: as §1, §2

[2] = sugar chain having fucose other than α1→6 fucose

Substance: LSL: fucose α1→6 specific lectin that can be extracted from Lepista sordida, SEQ ID No. 3
- Binding constant for sugar chain No. 728 [1]: <1000 M⁻¹
- Binding constant for sugar chain No. 728 (FAC binding constant; Table 3: sugar chain having fucose other than α1→6 fucose): <1000 M⁻¹
- Binding constant for sugar chain No. 419 (FAC binding constant; [2]): <1000 M⁻¹
- Binding constant for sugar chain No. 420 (FAC binding constant; [2]): <1000 M⁻¹
- Binding constant for sugar chain No. 718 (FAC binding constant; [2]): <1000 M⁻¹
- Binding constant for sugar chain No. 719 (FAC binding constant; [2]): <1000 M⁻¹
- Binding constant for sugar chain No. 720 (FAC binding constant; [2]): <1000 M⁻¹
- Binding constant for sugar chain No. 721 (FAC binding constant; [2]): <1000 M⁻¹
- Binding constant for sugar chain No. 722 (FAC binding constant; [2]): <1000 M⁻¹
- Binding constant for sugar chain No. 723 (FAC binding constant; [2]): <1000 M⁻¹
- Binding constant for sugar chain No. 726 (FAC binding constant; [2]): <1000 M⁻¹
- Binding constant for sugar chain No. 727 (FAC binding constant; [2]): <1000 M⁻¹
- Binding constant for sugar chain No. 729 (FAC binding constant; [2]): <1000 M⁻¹
- Binding constant for sugar chain No. 730 (FAC binding constant; [2]): <1000 M⁻¹
- Binding constant for sugar chain No. 731 (FAC binding constant; [2]): <1000 M⁻¹
- Binding constant for sugar chain No. 739 (FAC binding constant; [2]): <1000 M⁻¹
- Binding constant for sugar chain No. 909 (FAC binding constant; [2]): <1000 M⁻¹
- Binding constant for sugar chain No. 910 (FAC binding constant; [2]): <1000 M⁻¹
- Binding constant for sugar chain No. 931 (FAC binding constant; [2]): <1000 M⁻¹
- Binding constant for sugar chain No. 932 (FAC binding constant; [2]): <1000 M⁻¹
- Binding constant for sugar chain No. 933 (FAC binding constant; [2]): <1000 M⁻¹
- Binding constant for sugar chain No. 001 (FAC binding constant; sugar chain having no fucose): <1000 M⁻¹
- Binding constant for sugar chain No. 002 (FAC binding constant; sugar chain having no fucose): <1000 M⁻¹
- Binding constant for sugar chain No. 003 (FAC binding constant; sugar chain having no fucose): <1000 M⁻¹
- Binding constant for sugar chain No. 004 (FAC binding constant; sugar chain having no fucose): <1000 M⁻¹
- Binding constant for sugar chain No. 005 (FAC binding constant; sugar chain having no fucose): <1000 M⁻¹
- Binding constant for sugar chain No. 006 (FAC binding constant; sugar chain having no fucose): <1000 M⁻¹
- Binding constant for sugar chain No. 007 (FAC binding constant; sugar chain having no fucose): <1000 M⁻¹
- Binding constant for sugar chain No. 008 (FAC binding constant; sugar chain having no fucose): <1000 M⁻¹
- Binding constant for sugar chain No. 009 (FAC binding constant; sugar chain having no fucose): <1000 M⁻¹
- Binding constant for sugar chain No. 010 (FAC binding constant; sugar chain having no fucose): <1000 M⁻¹
- Binding constant for sugar chain No. 011 (FAC binding constant; sugar chain having no fucose): <1000 M⁻¹
- Binding constant for sugar chain No. 012 (FAC binding constant; sugar chain having no fucose): <1000 M⁻¹
- Binding constant for sugar chain No. 013 (FAC binding constant; sugar chain having no fucose): <1000 M⁻¹
- Binding constant for sugar chain No. 014 (FAC binding constant; sugar chain having no fucose): <1000 M⁻¹
- Binding constant for sugar chain No. 101 (FAC binding constant; sugar chain having no fucose): <1000 M⁻¹
- Binding constant for sugar chain No. 103 (FAC binding constant; sugar chain having no fucose): <1000 M⁻¹
- Binding constant for sugar chain No. 104 (FAC binding constant; sugar chain having no fucose): <1000 M⁻¹
- Binding constant for sugar chain No. 105 (FAC binding constant; sugar chain having no fucose): <1000 M⁻¹
- Binding constant for sugar chain No. 107 (FAC binding constant; sugar chain having no fucose): <1000 M⁻¹
- Binding constant for sugar chain No. 108 (FAC binding constant; sugar chain having no fucose): <1000 M⁻¹
- Binding constant for sugar chain No. 301 (FAC binding constant; sugar chain having no fucose): <1000 M⁻¹
- Binding constant for sugar chain No. 304 (FAC binding constant; sugar chain having no fucose): <1000 M⁻¹
- Binding constant for sugar chain No. 305 (FAC binding constant; sugar chain having no fucose): <1000 M⁻¹
- Binding constant for sugar chain No. 307 (FAC binding constant; sugar chain having no fucose): <1000 M⁻¹
- Binding constant for sugar chain No. 308 (FAC binding constant; sugar chain having no fucose): <1000 M⁻¹
- Binding constant for sugar chain No. 313 (FAC binding constant; sugar chain having no fucose): <1000 M⁻¹
- Binding constant for sugar chain No. 314 (FAC binding constant; sugar chain having no fucose): <1000 M⁻¹
- Binding constant for sugar chain No. 323 (FAC binding constant; sugar chain having no fucose): <1000 M⁻¹
- Binding constant for sugar chain No. 501 (FAC binding constant; sugar chain having no fucose): <1000 M⁻¹
- Binding constant for sugar chain No. 502 (FAC binding constant; sugar chain having no fucose): <1000 M⁻¹
- Binding constant for sugar chain No. 503 (FAC binding constant; sugar chain having no fucose): <1000 M⁻¹
- Binding constant for sugar chain No. 504 (FAC binding constant; sugar chain having no fucose): <1000 M⁻¹
- Binding constant for sugar chain No. 701 (FAC binding constant; sugar chain having no fucose): <1000 M⁻¹
- Binding constant for sugar chain No. 702 (FAC binding constant; sugar chain having no fucose): <1000 M⁻¹
- Binding constant for sugar chain No. 703 (FAC binding constant; sugar chain having no fucose): <1000 M⁻¹
- Binding constant for sugar chain No. 704 (FAC binding constant; sugar chain having no fucose): <1000 M⁻¹
- Binding constant for sugar chain No. 705 (FAC binding constant; sugar chain having no fucose): <1000 M⁻¹
- Binding constant for sugar chain No. 706 (FAC binding constant; sugar chain having no fucose): <1000 M⁻¹
- Binding constant for sugar chain No. 707 (FAC binding constant; sugar chain having no fucose): <1000 M⁻¹
- Binding constant for sugar chain No. 708 (FAC binding constant; sugar chain having no fucose): <1000 M⁻¹
- Binding constant for sugar chain No. 709 (FAC binding constant; sugar chain having no fucose): <1000 M⁻¹
- Binding constant for sugar chain No. 710 (FAC binding constant; sugar chain having no fucose): <1000 M⁻¹
- Binding constant for sugar chain No. 711 (FAC binding constant; sugar chain having no fucose): <1000 M⁻¹
- Binding constant for sugar chain No. 712 (FAC binding constant; sugar chain having no fucose): <1000 M⁻¹
- Binding constant for sugar chain No. 713 (FAC binding constant; sugar chain having no fucose): <1000 M⁻¹
- Binding constant for sugar chain No. 715 (FAC binding constant; sugar chain having no fucose): <1000 M⁻¹
- Binding constant for sugar chain No. 716 (FAC binding constant; sugar chain having no fucose): <1000 M⁻¹
- Binding constant for sugar chain No. 717 (FAC binding constant; sugar chain having no fucose): <1000 M⁻¹
- Binding constant for sugar chain No. 724 (FAC binding constant; sugar chain having no fucose): <1000 M⁻¹
- Binding constant for sugar chain No. 725 (FAC binding constant; sugar chain having no fucose): <1000 M⁻¹
- Binding constant for sugar chain No. 732 (FAC binding constant; sugar chain having no fucose): <1000 M⁻¹
- Binding constant for sugar chain No. 733 (FAC binding constant; sugar chain having no fucose): <1000 M⁻¹
- Binding constant for sugar chain No. 734 (FAC binding constant; sugar chain having no fucose): <1000 M⁻¹
- Binding constant for sugar chain No. 735 (FAC binding constant; sugar chain having no fucose): <1000 M⁻¹
- Binding constant for sugar chain No. 736 (FAC binding constant; sugar chain having no fucose): <1000 M⁻¹
- Binding constant for sugar chain No. 737 (FAC binding constant; sugar chain having no fucose): <1000 M⁻¹
- Binding constant for sugar chain No. 738 (FAC binding constant; sugar chain having no fucose): <1000 M⁻¹
- Binding constant for sugar chain No. 901 (FAC binding constant; sugar chain having no fucose): <1000 M⁻¹
- Binding constant for sugar chain No. 902 (FAC binding constant; sugar chain having no fucose): <1000 M⁻¹
- Binding constant for sugar chain No. 903 (FAC binding constant; sugar chain having no fucose): <1000 M⁻¹
- Binding constant for sugar chain No. 905 (FAC binding constant; sugar chain having no fucose): <1000 M⁻¹
- Binding constant for sugar chain No. 906 (FAC binding constant; sugar chain having no fucose): <1000 M⁻¹
- Binding constant for sugar chain No. 907 (FAC binding constant; sugar chain having no fucose): <1000 M⁻¹
- Binding constant for sugar chain No. 015 (FAC binding constant; sugar chain having α1→6 fucose): 190000 M⁻¹
- Binding constant for sugar chain No. 201 (FAC binding constant; sugar chain having α1→6 fucose): 230000 M⁻¹
- Binding constant for sugar chain No. 202 (FAC binding constant; sugar chain having α1→6 fucose): 230000 M⁻¹
- Binding constant for sugar chain No. 203 (FAC binding constant; sugar chain having α1→6 fucose): 200000 M⁻¹
- Binding constant for sugar chain No. 401 (FAC binding constant; sugar chain having α1→6 fucose): 350000 M⁻¹
- Binding constant for sugar chain No. 402 (FAC binding constant; sugar chain having α1→6 fucose): 200000 M⁻¹
- Binding constant for sugar chain No. 403 (FAC binding constant; sugar chain having α1→6 fucose): 340000 M⁻¹
- Binding constant for sugar chain No. 404 (FAC binding constant; sugar chain having α1→6 fucose): 390000 M⁻¹
- Binding constant for sugar chain No. 405 (FAC binding constant; sugar chain having α1→6 fucose): 320000 M⁻¹
- Binding constant for sugar chain No. 406 (FAC binding constant; sugar chain having α1→6 fucose): 220000 M⁻¹
- Binding constant for sugar chain No. 407 (FAC binding constant; sugar chain having α1→6 fucose): 280000 M⁻¹
- Binding constant for sugar chain No. 410 (FAC binding constant; sugar chain having α1→6 fucose): 220000 M⁻¹
- Binding constant for sugar chain No. 413 (FAC binding constant; sugar chain having α1→6 fucose): 280000 M⁻¹
- Binding constant for sugar chain No. 418 (FAC binding constant; sugar chain having α1→6 fucose): 220000 M⁻¹
- Binding constant for sugar chain No. 601 (FAC binding constant; sugar chain having α1→6 fucose): 240000 M⁻¹
- Binding constant for sugar chain No. 602 (FAC binding constant; sugar chain having α1→6 fucose): 120000 M⁻¹
